Experimental data reported in ChEMBL document CHEMBL4507272 (2021).

Legend:
[1] = molecular target: Serine/threonine-protein kinase PLK1 (Homo sapiens) (UniProt P53350); conditions: Compound concentration 1000.0 nM
[2] = molecular target: Mitogen-activated protein kinase kinase kinase kinase 2 (Homo sapiens) (UniProt Q12851); conditions: Compound concentration 1000.0 nM
[3] = molecular target: Tyrosine-protein kinase Yes (Homo sapiens) (UniProt P07947); conditions: Compound concentration 1000.0 nM
[4] = molecular target: Vascular endothelial growth factor receptor 1 (Homo sapiens) (UniProt P17948); conditions: Compound concentration 1000.0 nM
[5] = tested on: Receptor-type tyrosine-protein kinase FLT3 (Homo sapiens), P36888 [UNDEFINED MUTATION]; conditions: Compound concentration 1000.0 nM
[6] = molecular target: Microtubule-associated serine/threonine-protein kinase 1 (Homo sapiens) (UniProt Q9Y2H9); conditions: Compound concentration 1000.0 nM
[7] = molecular target: Calcium/calmodulin-dependent protein kinase type IV (Homo sapiens) (UniProt Q16566); conditions: Compound concentration 1000.0 nM
[8] = molecular target: Tyrosine-protein kinase ABL1 (Homo sapiens) (UniProt P00519); conditions: Compound concentration 1000.0 nM
[9] = molecular target: Calcium/calmodulin-dependent protein kinase type II subunit gamma (Homo sapiens) (UniProt Q13555); conditions: Compound concentration 1000.0 nM
[10] = molecular target: Histamine H2 receptor (Homo sapiens) (UniProt P25021); conditions: Compound concentration 10.0 uM
[11] = molecular target: Interleukin-1 receptor-associated kinase 4 (Homo sapiens) (UniProt Q9NWZ3); conditions: Compound concentration 1000.0 nM
[12] = molecular target: 5-hydroxytryptamine receptor 5A (Homo sapiens) (UniProt P47898); conditions: Compound concentration 10.0 uM
[13] = molecular target: Tyrosine-protein kinase TXK (Homo sapiens) (UniProt P42681); conditions: Compound concentration 1000.0 nM
[14] = molecular target: Serine/threonine-protein kinase/endoribonuclease IRE1 (Homo sapiens) (UniProt O75460); conditions: Compound concentration 1000.0 nM
[15] = molecular target: Alpha-2C adrenergic receptor (Homo sapiens) (UniProt P18825); conditions: Compound concentration 10.0 uM
[16] = molecular target: Aurora kinase C (Homo sapiens) (UniProt Q9UQB9); conditions: Compound concentration 1000.0 nM
Chain of Aurora kinase C (Homo sapiens) (Q9UQB9 whole entry): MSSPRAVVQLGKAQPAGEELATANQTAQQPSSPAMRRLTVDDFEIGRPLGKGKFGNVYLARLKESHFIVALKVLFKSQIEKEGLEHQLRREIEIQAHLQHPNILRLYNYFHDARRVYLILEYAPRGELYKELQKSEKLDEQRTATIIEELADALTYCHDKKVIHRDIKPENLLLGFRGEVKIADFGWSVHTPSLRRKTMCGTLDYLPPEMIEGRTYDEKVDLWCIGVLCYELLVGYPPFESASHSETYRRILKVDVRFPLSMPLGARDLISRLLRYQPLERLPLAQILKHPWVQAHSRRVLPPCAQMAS

Chain of Tyrosine-protein kinase TXK (Homo sapiens) (P42681 whole entry): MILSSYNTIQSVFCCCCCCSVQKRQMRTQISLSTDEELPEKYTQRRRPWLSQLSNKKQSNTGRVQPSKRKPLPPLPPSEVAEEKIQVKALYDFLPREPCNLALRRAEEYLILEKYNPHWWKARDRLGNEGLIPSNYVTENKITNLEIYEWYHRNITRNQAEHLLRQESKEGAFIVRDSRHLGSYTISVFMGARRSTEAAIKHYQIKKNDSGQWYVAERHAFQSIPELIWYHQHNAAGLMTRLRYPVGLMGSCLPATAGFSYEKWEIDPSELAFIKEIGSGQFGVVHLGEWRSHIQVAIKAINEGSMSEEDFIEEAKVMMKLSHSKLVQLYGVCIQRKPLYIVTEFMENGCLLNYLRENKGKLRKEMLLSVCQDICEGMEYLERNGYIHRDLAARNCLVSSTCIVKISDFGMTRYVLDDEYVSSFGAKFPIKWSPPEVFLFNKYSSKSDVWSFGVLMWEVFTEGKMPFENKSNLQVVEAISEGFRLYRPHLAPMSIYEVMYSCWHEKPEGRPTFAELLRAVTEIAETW
Chain of Tyrosine-protein kinase ABL1 (Homo sapiens) (P00519 whole entry): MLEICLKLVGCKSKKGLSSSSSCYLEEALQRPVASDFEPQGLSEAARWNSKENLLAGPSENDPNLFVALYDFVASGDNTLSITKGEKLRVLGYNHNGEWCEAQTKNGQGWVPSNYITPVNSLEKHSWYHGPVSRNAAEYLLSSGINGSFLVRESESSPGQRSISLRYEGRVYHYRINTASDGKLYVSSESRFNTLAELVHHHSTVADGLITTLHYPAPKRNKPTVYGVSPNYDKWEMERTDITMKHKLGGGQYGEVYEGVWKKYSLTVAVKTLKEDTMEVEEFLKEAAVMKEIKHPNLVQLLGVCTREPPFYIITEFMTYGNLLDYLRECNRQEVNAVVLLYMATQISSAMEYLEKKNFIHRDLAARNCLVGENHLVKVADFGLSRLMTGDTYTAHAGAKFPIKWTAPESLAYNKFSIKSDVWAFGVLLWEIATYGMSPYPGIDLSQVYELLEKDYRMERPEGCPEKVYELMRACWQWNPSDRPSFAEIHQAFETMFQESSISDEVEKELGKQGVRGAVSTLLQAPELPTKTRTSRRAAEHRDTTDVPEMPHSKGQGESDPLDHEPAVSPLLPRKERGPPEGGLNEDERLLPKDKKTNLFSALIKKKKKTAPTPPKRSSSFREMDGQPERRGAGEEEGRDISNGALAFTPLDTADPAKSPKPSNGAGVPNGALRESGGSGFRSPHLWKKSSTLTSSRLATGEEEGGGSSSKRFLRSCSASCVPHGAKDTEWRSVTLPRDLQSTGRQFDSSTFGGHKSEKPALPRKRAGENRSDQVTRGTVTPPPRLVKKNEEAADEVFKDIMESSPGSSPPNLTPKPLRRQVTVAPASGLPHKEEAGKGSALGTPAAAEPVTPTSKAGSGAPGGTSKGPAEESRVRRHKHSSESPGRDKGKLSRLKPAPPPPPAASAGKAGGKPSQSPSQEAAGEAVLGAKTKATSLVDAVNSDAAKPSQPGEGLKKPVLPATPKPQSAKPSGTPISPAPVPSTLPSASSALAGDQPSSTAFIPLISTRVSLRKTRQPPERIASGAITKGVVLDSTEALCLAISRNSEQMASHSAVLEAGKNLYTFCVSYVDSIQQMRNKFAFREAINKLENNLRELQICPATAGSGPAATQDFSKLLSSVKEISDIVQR
Chain of Microtubule-associated serine/threonine-protein kinase 1 (Homo sapiens) (Q9Y2H9 whole entry, looked up): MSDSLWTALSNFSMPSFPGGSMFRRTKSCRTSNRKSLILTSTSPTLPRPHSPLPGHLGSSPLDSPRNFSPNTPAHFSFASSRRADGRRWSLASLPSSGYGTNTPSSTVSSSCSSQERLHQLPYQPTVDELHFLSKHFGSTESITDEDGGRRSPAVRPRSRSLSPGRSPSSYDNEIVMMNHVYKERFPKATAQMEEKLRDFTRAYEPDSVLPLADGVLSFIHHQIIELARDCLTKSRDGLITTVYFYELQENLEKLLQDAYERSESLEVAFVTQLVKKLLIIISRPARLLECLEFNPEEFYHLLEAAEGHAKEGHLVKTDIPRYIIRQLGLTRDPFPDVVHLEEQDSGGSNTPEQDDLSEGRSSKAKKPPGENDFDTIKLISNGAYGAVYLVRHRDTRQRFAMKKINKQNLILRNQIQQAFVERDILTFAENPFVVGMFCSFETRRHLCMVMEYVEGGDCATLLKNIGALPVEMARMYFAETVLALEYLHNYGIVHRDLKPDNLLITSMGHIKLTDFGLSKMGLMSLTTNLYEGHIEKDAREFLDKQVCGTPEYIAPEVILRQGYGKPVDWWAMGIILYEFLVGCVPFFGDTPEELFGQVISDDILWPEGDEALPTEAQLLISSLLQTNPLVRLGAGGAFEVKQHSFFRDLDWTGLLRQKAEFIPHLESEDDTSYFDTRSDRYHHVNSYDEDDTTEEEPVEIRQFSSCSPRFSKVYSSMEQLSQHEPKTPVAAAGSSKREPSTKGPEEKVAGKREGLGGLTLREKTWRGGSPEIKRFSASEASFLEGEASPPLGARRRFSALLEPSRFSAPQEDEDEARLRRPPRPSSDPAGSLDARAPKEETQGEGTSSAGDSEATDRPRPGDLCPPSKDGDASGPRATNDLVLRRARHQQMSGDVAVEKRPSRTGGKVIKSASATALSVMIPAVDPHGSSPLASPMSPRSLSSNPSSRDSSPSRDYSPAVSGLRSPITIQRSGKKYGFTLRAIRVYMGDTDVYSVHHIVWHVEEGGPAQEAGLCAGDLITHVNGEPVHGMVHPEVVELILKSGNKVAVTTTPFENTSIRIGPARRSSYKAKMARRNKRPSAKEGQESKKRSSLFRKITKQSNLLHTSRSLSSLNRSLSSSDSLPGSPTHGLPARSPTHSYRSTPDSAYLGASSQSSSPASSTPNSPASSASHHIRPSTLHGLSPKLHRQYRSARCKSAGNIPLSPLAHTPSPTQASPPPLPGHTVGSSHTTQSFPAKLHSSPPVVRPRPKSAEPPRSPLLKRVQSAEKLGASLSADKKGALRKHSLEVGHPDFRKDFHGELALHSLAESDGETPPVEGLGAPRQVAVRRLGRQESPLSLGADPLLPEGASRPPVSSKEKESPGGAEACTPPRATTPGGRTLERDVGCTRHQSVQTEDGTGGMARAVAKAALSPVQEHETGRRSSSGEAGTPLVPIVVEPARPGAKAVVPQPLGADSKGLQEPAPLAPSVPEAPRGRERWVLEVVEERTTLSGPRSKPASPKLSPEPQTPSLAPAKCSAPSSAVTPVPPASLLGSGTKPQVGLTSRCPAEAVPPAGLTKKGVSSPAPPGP
Chain of Interleukin-1 receptor-associated kinase 4 (Homo sapiens) (Q9NWZ3 whole entry): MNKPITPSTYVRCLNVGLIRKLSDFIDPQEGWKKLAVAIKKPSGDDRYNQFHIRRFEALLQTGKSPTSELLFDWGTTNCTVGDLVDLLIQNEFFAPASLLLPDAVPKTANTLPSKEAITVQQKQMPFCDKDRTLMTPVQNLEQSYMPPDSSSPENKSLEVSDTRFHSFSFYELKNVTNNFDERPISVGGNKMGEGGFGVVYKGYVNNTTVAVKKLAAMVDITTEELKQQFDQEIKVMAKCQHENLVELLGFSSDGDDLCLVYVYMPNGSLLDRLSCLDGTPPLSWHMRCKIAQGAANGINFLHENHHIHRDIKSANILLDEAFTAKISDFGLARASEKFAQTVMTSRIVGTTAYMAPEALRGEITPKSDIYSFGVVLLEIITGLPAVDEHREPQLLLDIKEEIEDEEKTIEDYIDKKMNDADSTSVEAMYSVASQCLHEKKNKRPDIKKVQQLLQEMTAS
Chain of Serine/threonine-protein kinase PLK1 (Homo sapiens) (P53350 whole entry): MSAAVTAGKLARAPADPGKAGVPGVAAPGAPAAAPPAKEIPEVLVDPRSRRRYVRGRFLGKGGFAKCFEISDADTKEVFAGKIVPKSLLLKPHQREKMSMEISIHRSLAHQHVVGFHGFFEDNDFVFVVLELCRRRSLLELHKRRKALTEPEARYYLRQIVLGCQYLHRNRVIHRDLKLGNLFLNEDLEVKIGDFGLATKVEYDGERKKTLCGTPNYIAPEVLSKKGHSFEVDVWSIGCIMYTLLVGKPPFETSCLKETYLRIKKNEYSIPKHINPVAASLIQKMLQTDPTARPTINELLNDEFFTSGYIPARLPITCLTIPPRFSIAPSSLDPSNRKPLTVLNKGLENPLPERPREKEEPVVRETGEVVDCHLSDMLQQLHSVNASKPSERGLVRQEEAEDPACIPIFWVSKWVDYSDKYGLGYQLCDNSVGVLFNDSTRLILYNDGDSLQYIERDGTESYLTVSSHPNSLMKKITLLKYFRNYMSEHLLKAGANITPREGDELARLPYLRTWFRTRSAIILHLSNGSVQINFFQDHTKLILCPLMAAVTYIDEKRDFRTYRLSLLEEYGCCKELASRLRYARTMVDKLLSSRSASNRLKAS
Chain of Alpha-2C adrenergic receptor (Homo sapiens) (P18825 whole entry): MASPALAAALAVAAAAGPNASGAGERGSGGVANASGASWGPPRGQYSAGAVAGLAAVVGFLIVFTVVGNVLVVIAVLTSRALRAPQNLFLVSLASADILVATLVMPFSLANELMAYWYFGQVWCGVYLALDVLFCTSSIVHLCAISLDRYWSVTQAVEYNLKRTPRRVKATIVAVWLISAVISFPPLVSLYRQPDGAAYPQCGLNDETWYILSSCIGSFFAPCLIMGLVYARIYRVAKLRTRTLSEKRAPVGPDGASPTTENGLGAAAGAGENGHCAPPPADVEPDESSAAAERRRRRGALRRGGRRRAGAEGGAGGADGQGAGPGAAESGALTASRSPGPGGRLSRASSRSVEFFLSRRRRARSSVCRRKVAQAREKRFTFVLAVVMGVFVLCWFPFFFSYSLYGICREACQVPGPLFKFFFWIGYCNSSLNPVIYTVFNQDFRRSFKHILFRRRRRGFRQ

CC(=O)C1=C(C)N(c2cccc(C(F)(F)F)c2)C(=O)N[C@@H]1c1ccc(C#N)nc1 [BAY-678]
inactive: residual activity [1] 100% | residual activity [2] 100% | residual activity [3] 81.1% | residual activity [4] 62.4% | residual activity [5] 87.4% | residual activity [6] 96.9% | residual activity [7] 54.3% | residual activity [8] 83.3% | residual activity [9] 100% | inhibition [10] 14.5% | residual activity [11] 100% | inhibition [12] 4.22% | residual activity [13] 100% | residual activity [14] 100% | inhibition [15] 20.2% | residual activity [16] 100%
